# Measurements as given in US20120270786A1, “INTESTINE AND MUSCLE RECOVERY” (I.N.R.A., priority 2009, published 2012).
# Marks after values point to notes of the source that are not given here.
# What was measured:
# Type in all cases: in vivo, rat
# proteasome = assay: Peptidase activities of the proteasome in the small intestine of fed and starved rats
# Protocol: (§1) Young male Wistar rats (50-60 g) were obtained from Charles River (L'Arbresle, France) and maintained in a temperature controlled room (22±1° C.) with a 12 h light/12 h dark cycle. They were given free access to a standard rodent diet (A03; UAR, Epernay sur Orge, France) and to water during a 5 days acclimatization period. Three experiments were conducted. (1) In the first experiment, rats were fed ad libitum or fasted for 1 or 2 days. At the end of the fasting period, rats were anesthetized with intraperitoneal injection of urethane (1.7 g/kg body weight, Sigma Aldrich, Lyon, France) and sacrificed. […]
# Proteins from pieces of jejunum and/or ileum were homogenized using a polytron homogenizer, in ice-cold buffer (pH 7.5) containing 50 mmol/L Tris/HCl, 5 mmol/L MgCl2, 250 mmol/L sucrose, 10 mmol/L ATP, 1 mmol/L DTT, 10 μg/mL aprotinin, 10 μg/mL leupeptin, 10 μg/mL antipain, 10 μg/mL pepstatin A, and 0.2 mmol/L phenylmethylsulphonylfluoride (PMSF). […] The protein content of the proteasome preparation was determined using the Biorad protein assay following the manufacturer instructions. […] The accumulation of AMC at 37° C. during 45 minutes was measured continuously as described for cathepsin activities measurements. The difference between arbitrary fluorescence units recorded with or without 40 μmol/L […]of the proteasome inhibitor MG132 (Affiniti) in the reaction medium was calculated. […]
# [1] = system: starvation-induced skeletal muscle atrophy; assay: Starvation-induced skeletal muscle atrophy (experiment 3); details: for EDL mass / gastrocnemius mass / tibialis anterior mass: GLP-2, mean ± SEM, n=5
# Protocol: (§2) Young male Wistar rats (50-60 g) were obtained from Charles River (L'Arbresle, France) and maintained in a temperature controlled room (22±1° C.) with a 12 h light/12 h dark cycle. They were given free access to a standard rodent diet (A03; UAR, Epernay sur Orge, France) and to water during a 5 days acclimatization period. Three experiments were conducted. (1) In the first experiment, rats were fed ad libitum or fasted for 1 or 2 days. At the end of the fasting period, rats were anesthetized with intraperitoneal injection of urethane (1.7 g/kg body weight, Sigma Aldrich, Lyon, France) and sacrificed. (2) In the second experiment, animals were randomly divided into control and GLP-2 treated groups (n=26-30 per group). Injections of saline (400 μL) or GLP-2 (20 μg/400 μL of saline) every 12 h started at day 0 and continued until the end of the experiment. At day 4, half of each group was deprived of food for 2 days. At day 6, animals were sacrificed as described. (3) In the last experiment, rats were allocated as described in experiment 2. Control and GLP-2 treated groups (n=20 per group) were divided into 2 groups of fed (n=5) and starved rats (n=15). Saline and GLP-2 injections continued until the sacrifice of the rats. At day 6, 5 rats from the fed and the 48 h-fasted groups treated or not with GLP-2 were sacrificed as described. The remaining fasted animals from the control and GLP-2 treated groups were refed ad libitum from day 6 for 6 or 24 h. After refeeding, rats were sacrificed as described.
# (§3) The entire small intestine was rapidly excised, rinsed three times with ice-cold PBS, blotted and weighed. Ten cm caudal to the pyloric sphincter and ten cm cranial to the ileo-caecal junction were taken and discarded. Jejunum and ileum were excised, weighed, and divided in small pieces of 5 cm. The first piece was immediately processed for cathepsin activities. The remaining pieces were frozen in liquid nitrogen, and stored at −80° C. until further analyses. In experiment 3, skeletal muscles (EDL, gastrocnemius and tibialis anterior) were also carefully dissected and weight.
# (§4) Data are expressed as means±SEM. One-way or two-way ANOVA were used to address for fasting effect in experiment 1 and for fasting and GLP-2 effects experiment 2 and 3. A posteriori PLSD Fisher's test was performed in order to assess for differences among groups. P values <0.05 were considered statistical significance and P values <0.10 were considered statistical tendency.
# small intestinal mass = assay: Small intestinal mass recovery after 48 h starvation and 6 or 24 h refeeding
# Protocol: as §2, §3
# Cathepsin B = Cathepsin B activity in the ileum; details: compared with untreated rats, P<0.002
# Protocol: as §1
# (§5) The five cm pieces of jejunum and/or ileum were immediately homogenized using a polytron homogenizer in a 10 mmol/L phosphate buffer (pH 7.4) containing 50 mmol/L KCl, 1 mmol/L EDTA and 0.25 mol/L sucrose as described previously.^30 Homogenates were then centrifuged at 1,000 g (10 minutes, 4° C.). […] Cathepsin B and cathepsin B+L+S activities were determined using the fluorogenic substrates Z-arginine-arginine-AMC (ZAA-AMC, 50 μmol/L, Sigma), Z-phenylalanine-arginine-AMC (ZPA-AMC, 30 μmol/L, Sigma), respectively.^30 Neutral pH reducing the cathepsin L activity, the bulk of the cathepsin B+L+S activity measured with ZPA-AMC at pH 7.0 reflects the cathepsin B+S activity. […] Fluorescence was measured continuously at 380 nm excitation and 440 nm emission wavelengths. […]
# [2] = system: Tibialis anterior, gastrocnemius and EDL muscle masses; assay: Skeletal muscle mass recovery after 48 h starvation and 24 h refeeding
# Protocol: as §2, §3
# Cathepsin B+L+S = Cathepsin B+L+S activity in the ileum; details: compared with untreated rats, P<0.0005
# Protocol: as §1, §5
# [3] = system: Cathepsin (B, B+S, B+L+S and D); assay: Cathepsin activities in the jejunum of fed and starved rats
# Protocol: as §1, §5
# [4] = system: villus height and crypt depth in the jejunum and ileum; assay: Histologic and morphometric measurements of villus height and crypt depth in jejunum and ileum; details: GLP-2 treatment
# Protocol: as §2
# Tissue samples from jejunum and ileum were fixed in 10% formaldehyde buffered with Na2CO3 (10 g/L) and processed for villus height and crypt depth measurements. Treatment designation of slides was blinded at the time of measurement.
# [5] = system: starvation-induced body weight loss and intestine atrophy; assay: Starvation-induced body weight loss and intestine atrophy in saline- or GLP-2-injected rats (experiment 2); details: for Body weight / Ileum mass / Jejunum mass / Small intestine mass: GLP-2 20 μg every 12 h, mean ± SEM
# Protocol: as §2, §3, §4
# [6] = GLP-2 effect, two-way ANOVA, P<0.0001
sequence,measurement,setting,value
"HGDGSFSDEMNTILDNLATRDFINWLIQTKITD (Rat GLP-2 sequence with an Ala-->Gly exchange in position 2) [Rat recombinant GLP-2, [Ala] in position 2 substituted by [Gly] to make the peptide resistant to DPP IV degradation]",Peptidase activities of the proteasome,"proteasome; jejunum or ileum, daily administration of GLP-2",not modified
same,increase of the chymotrypsin- and the trypsin-like activities,"proteasome; jejunum, following fasting",did not block the increase
same,EDL mass,[1]; fed rats,45.7 ± 0.9^a mg
same,gastrocnemius mass,[1]; fed rats,0.513 ± 0.013^a g
same,tibialis anterior mass,[1]; fed rats,195.7 ± 5.0^a mg
same,"skeletal muscle loss (tibialis anterior, gastrocnemius, EDL)",[1]; following 2 days of starvation,did not prevent
same,EDL mass,[1]; starved rats (48 h),37.2 ± 0.9^b mg
same,gastrocnemius mass,[1]; starved rats (48 h),0.415 ± 0.006^b g
same,tibialis anterior mass,[1]; starved rats (48 h),156.6 ± 2.0^b mg
same,small intestinal atrophy,"small intestinal mass; after 6 h of refeeding, P<0.001",15%
same,small intestinal atrophy,small intestinal mass; after 24 h of refeeding,totally absent
same,small intestine recovery,"small intestinal mass; after 24 h of refeeding, GLP-2 treated rats",totally recovered
same,recovery of the small intestinal mass,"small intestinal mass; refed rats after 48 h starvation, compared to saline injected animals",accelerated recovery
same,decrease of cathepsin B activity,Cathepsin B,−43%
same,EDL muscle recovery,[2]; after 24 h of refeeding,totally recovered
same,Tibialis anterior muscle recovery,[2]; after 24 h of refeeding,totally recovered
same,gastrocnemius atrophy,"[2]; after 24 h of refeeding, compared to GLP-2 treated fed rats, P<0.05",9%
same,skeletal muscle recovery,[2]; refeeding after 48 h starvation,enhanced
same,decrease of cathepsin B+L+S activity,Cathepsin B+L+S,−50%
same,cathepsin activities,[3],blocked the increase
same,villus height in the ileum,[4],no effect
same,crypt depth in the ileum,[4]; following fasting,did not inhibit the reduction
same,crypt depth in the jejunum,[4]; following starvation,blocked the decrease
same,reduction of the villus height in the jejunum,[4]; following starvation,−13%
same,atrophy of the jejunum,"[5]; GLP-2-treated starved rats vs. saline injected-fed rats, P<0.005",−12%
same,increase of jejunal mass,[5]; [6],21%
same,increase of total small intestinal mass,[5]; [6],22%
same,increase of ileal mass,"[5]; GLP-2 effect, two-way ANOVA, P<0.005",17.5%
same,starvation-induced loss of body weight,"[5]; GLP-2 treated group, starved vs fed",−22%
same,whole small intestine and ileum mass,[5]; GLP-2 treated-starved rats compared with saline injected-fed rats,similar
same,Body weight,"[5]; fed rats, day 6",112.5 ± 1.7^a g
same,Ileum mass,[5]; fed rats,1.24 ± 0.07^b g
same,Jejunum mass,[5]; fed rats,3.45 ± 0.08^b g
same,Small intestine mass,[5]; fed rats,5.57 ± 0.17^b g
same,Body weight,[5]; rats starved 2 days,87.2 ± 1.0^b g
same,Ileum mass,[5]; rats starved 2 days,1.02 ± 0.05^a g
same,Jejunum mass,[5]; rats starved 2 days,2.62 ± 0.09^d g
same,Small intestine mass,[5]; rats starved 2 days,4.56 ± 0.11^a g
same,reduction of the atrophy of the small intestine induced by starvation,[5]; starved rats receiving GLP-2,16%
